# Test results as given in patent US9695200B2, “Heterocyclic ITK inhibitors for treating inflammation and cancer” (Confluence Life Sciences, Inc., priority 2015, dated 2017).
# pIC50: −log10 of the molar value.
# Tested on: phospho-PLCγ1 in Jurkat cells
# Assay: ITK target modulation PLC-γ assay (phospho-PLCγ1, αCD3-stimulated Jurkat cells)
# Assay type: cell-based, human
# Conditions: Homo sapiens, 1 hour compound incubation, αCD3 Dynabeads stimulation 8 minutes, MSD phospho-PLCγ1, read-out: PLC-γ Inhibition IC50
# Procedure: Jurkat cells, an immortalized human T-lymphocyte cell line, were maintained in RPMI media, 10% FBS, 1% pen/strep/glutamine (growth media). Cells were plated in growth media plus 50 μM β-mercaptoethanol at 400,000 cells per well of a 96 well plate.
# Compounds were serially diluted into DMSO, and then into media to concentrations 10× that of the final assay concentration. Compounds were then added to the cells with the final assay DMSO concentration being 0.1%. Cells were incubated for 1 hour at 37° C.
# Following compound incubation, αCD3 Dynabeads were added at 1 bead/cell to each assay well and incubated at 37° C. for 7 minutes. Unstimulated control wells received media only. The plate was then placed on a 96-well magnetic plate for an additional 60 seconds (total assay stimulation time equals 8 minutes). The plate was then dumped and gently patted dry on a paper towel. 50 μl of complete Meso Scale Discovery (MSD) Lysis buffer was then added to each well. Samples were assayed for phospho-PLCγ1 using Meso Scale Discovery technology.
# The assay stimulation time has been optimized for detection of Itk kinase-mediated phosphorylation of PLCγ1. The timing and detection reagents for this assay could be adjusted to capture phosphorylation events upstream (e.g., phospho-ZAP70) or downstream of the Itk/PLCγ1 node, provided the appropriate phospho-specific antibodies are available for building of an MSD assay.
row,SMILES,pIC50
1,"C=CC(=O)Nc1cccc(-c2cnc3[nH]cc(-c4cc(OC)nc(C(F)(F)F)c4)c3c2)c1 [Example 31, N-(3-(3-(2-methoxy-6-(trifluoromethyl)pyridin-4-yl)-1H-pyrrolo[2,3-b]pyridin-5-yl)phenyl)acryl-amide]",< 5.30
2,"C=CC(=O)Nc1cccc(-c2cnc3[nH]cc(-c4cncc5[nH]ccc45)c3c2)c1 [Example 77, N-(3-(3-(1H-pyrrolo[2,3-c]pyridin-4-yl)-1H-pyrrolo[2,3-b]pyridin-5-yl)phenyl)acryl-amide]",< 5.30
3,"N#C/C(=C\c1cccc(-c2cnc3[nH]cc(-c4ccc(F)nc4)c3c2)c1)C(N)=O [Example 63, (E)-2-cyano-3-(3-(3-(6-fluoropyridin-3-yl)-1H-pyrrolo[2,3-b]pyridin-5-yl)phenyl)acryl-amide]",< 5.30
4,"C=CC(=O)Nc1cc(C#N)cc(-c2cnc3[nH]cc(-c4ccncc4)c3c2)c1 [Example 19, N-(3-cyano-5-(3-(pyridin-4-yl)-1H-pyrrolo[2,3-b]pyridin-5-yl)phenyl)acryl-amide]",< 5.30
5,"C=CC(=O)Nc1cc(-c2cnc3[nH]cc(-c4ccc(OC)nc4)c3c2)cc(C(F)(F)F)c1 [Example 58, N-(3-(3-(6-methoxypyridin-3-yl)-1H-pyrrolo[2,3-b]pyridin-5-yl)-5-(trifluoromethyl)phenyl)acryl-amide]",5.30 to 6.00
6,"C=CC(=O)Nc1cccc(-c2cnc3[nH]cc(-c4ccnc5ccccc45)c3c2)c1 [Example 64, N-(3-(3-(quinolin-4-yl)-1H-pyrrolo[2,3-b]pyridin-5-yl)phenyl)acryl-amide]",5.30 to 6.00
7,"C=CC(=O)Nc1cccc(-c2cnc3[nH]cc(-c4cccc5ncccc45)c3c2)c1 [Example 54, N-(3-(3-(quinolin-5-yl)-1H-pyrrolo[2,3-b]pyridin-5-yl)phenyl)acryl-amide]",5.30 to 6.00
8,"C=CC(=O)Nc1cncc(-c2cnc3[nH]cc(-c4cn(C)c(=O)c5[nH]ccc45)c3c2)c1 [Example 73, N-(5-(3-(6-methyl-7-oxo-6,7-dihydro-1H-pyrrolo[2,3-c]pyridin-4-yl)-1H-pyrrolo[2,3-b]pyridin-5-yl)pyridin-3-yl)acrylamide]",< 5.30
9,"C=CC(=O)Nc1cccc(-c2cnc3[nH]cc(-c4cc(C)ncn4)c3c2)c1 [Example 44, N-(3-(3-(6-methylpyrimidin-4-yl)-1H-pyrrolo[2,3-b]pyridin-5-yl)phenyl)acryl-amide]",5.30 to 6.00
10,"C=CC(=O)Nc1cccc(-c2cnc3[nH]cc(-c4cncc(Cl)c4)c3c2)c1 [Example 43, N-(3-(3-(5-chloropyridin-3-yl)-1H-pyrrolo[2,3-b]pyridin-5-yl)phenyl)acryl-amide]",5.30 to 6.00
11,"N#C/C(=C\c1cccc(-c2cnc3[nH]cc(-c4ccncn4)c3c2)c1)C(N)=O [Example 75, (E)-2-cyano-3-(3-(3-(pyrimidin-4-yl)-1H-pyrrolo[2,3-b]pyridin-5-yl)phenyl)acryl-amide]",< 5.30
12,"Cc1cc(-c2c[nH]c3ncc(-c4cccc(/C=C(\C#N)C(N)=O)c4)cc23)ccn1 [Example 33, (E)-2-cyano-3-(3-(3-(2-methylpyridin-4-yl)-1H-pyrrolo[2,3-b]pyridin-5-yl)phenyl)acryl-amide]",5.30 to 6.00
13,"COc1cc(/C=C(\C#N)C(N)=O)cc(-c2cnc3[nH]cc(-c4ccnc(OC)c4)c3c2)c1 [Example 60, (E)-2-cyano-3-(3-methoxy-5-(3-(2-methoxypyridin-4-yl)-1H-pyrrolo[2,3-b]pyridin-5-yl)phenyl)acryl-amide]",< 5.30
14,"C=CC(=O)Nc1cccc(-c2cnc3[nH]cc(-c4cc(C)cc(OC)n4)c3c2)c1 [Example 52, N-(3-(3-(6-methoxy-4-methylpyridin-2-yl)-1H-pyrrolo[2,3-b]pyridin-5-yl)phenyl)acryl-amide]",< 5.30
15,"COC/C=C/C(=O)Nc1cccc(-c2cnc3[nH]cc(-c4ccnc(OC)c4)c3c2)c1 [Example 65, (E)-4-methoxy-N-(3-(3-(2-methoxypyridin-4-yl)-1H-pyrrolo[2,3-b]pyridin-5-yl)phenyl)but-2-enamide]",< 5.30
16,"C=CC(=O)Nc1cccc(-c2cnc3[nH]cc(-c4cccc5ccccc45)c3c2)c1 [Example 53, N-(3-(3-(naphthalen-1-yl)-1H-pyrrolo[2,3-b]pyridin-5-yl)phenyl)acryl-amide]",< 5.30
17,"C=CC(=O)Nc1cccc(-c2cnc3[nH]cc(-c4ccc(=O)n(CC(C)(C)O)c4)c3c2)c1 [Example 66, N-(3-(3-(1-(2-hydroxy-2-methylpropyl)-6-oxo-1,6-dihydropyridin-3-yl)-1H-pyrrolo[2,3-b]pyridin-5-yl)phenyl)acryl-amide]",5.30 to 6.00

# More lines, now with the values ahead:
row,pIC50,SMILES
1,5.30 to 6.00,"C=CC(=O)Nc1cccc(-c2cnc3[nH]cc(-c4ccccc4C)c3c2)c1 [Example 42, N-(3-(3-(o-tolyl)-1H-pyrrolo[2,3-b]pyridin-5-yl)phenyl)acryl-amide]"
2,5.30 to 6.00,"C=CC(=O)Nc1cccc(-c2cnc3[nH]cc(-c4cccc(OC)c4)c3c2)c1 [Example 51, N-(3-(3-(3-methoxyphenyl)-1H-pyrrolo[2,3-b]pyridin-5-yl)phenyl)acryl-amide]"
3,> 6.00,"C=CC(=O)Nc1cc(-c2cnc3[nH]cc(-c4cccnc4)c3c2)cc(C(F)(F)F)c1 [Example 59, N-(3-(3-(pyridin-3-yl)-1H-pyrrolo[2,3-b]pyridin-5-yl)-5-(trifluoromethyl)phenyl)acryl-amide]"
4,5.30 to 6.00,"C=CC(=O)Nc1cccc(-c2cnc3[nH]cc(-c4ccc(NC)nc4)c3c2)c1 [Example 48, N-(3-(3-(6-(methylamino)pyridin-3-yl)-1H-pyrrolo[2,3-b]pyridin-5-yl)phenyl)acryl-amide]"
5,5.30 to 6.00,"C=CC(=O)Nc1cc(-c2cnc3[nH]cc(-c4ccnc(OC)c4)c3c2)cc(C(O)(CC)CC)c1 [Example 83, N-(3-(3-hydroxypentan-3-yl)-5-(3-(2-methoxypyridin-4-yl)-1H-pyrrolo[2,3-b]pyridin-5-yl)phenyl)acryl-amide]"
6,> 6.00,"C=CC(=O)Nc1cccc(-c2cnc3[nH]cc(-c4ccc(=O)n(CC5CC5)c4)c3c2)c1 [Example 50, N-(3-(3-(1-(cyclopropyl-methyl)-6-oxo-1,6-dihydropyridin-3-yl)-1H-pyrrolo[2,3-b]pyridin-5-yl)phenyl)acryl-amide]"
7,> 6.00,"C=CC(=O)Nc1cccc(-c2cnc3[nH]cc(-c4ccnc(NC)n4)c3c2)c1 [Example 91, N-(3-(3-(2-(methylamino)pyrimidin-4-yl)-1H-pyrrolo[2,3-b]pyridin-5-yl)phenyl)acryl-amide]"
8,5.30 to 6.00,"C=CC(=O)Nc1cccc(-c2cnc3[nH]cc(-c4cccnc4)c3c2)c1 [Example 12, N-(3-(3-(pyridin-3-yl)-1H-pyrrolo[2,3-b]pyridin-5-yl)phenyl)acryl-amide]"
9,> 6.00,"C=CC(=O)Nc1cccc(-c2cnc3[nH]cc(-c4ccnc(NC)c4)c3c2)c1 [Example 32, N-(3-(3-(2-(methylamino)pyridin-4-yl)-1H-pyrrolo[2,3-b]pyridin-5-yl)phenyl)acryl-amide]"
10,> 6.00,"C=CC(=O)Nc1cc(-c2cnc3[nH]cc(-c4ccnc(F)c4)c3c2)cc(C(F)(F)F)c1 [Example 61, N-(3-(3-(2-fluoropyridin-4-yl)-1H-pyrrolo[2,3-b]pyridin-5-yl)-5-(trifluoromethyl)phenyl)acryl-amide]"
11,> 6.00,"C=CC(=O)Nc1cccc(-c2cnc3[nH]cc(-c4ccncn4)c3c2)c1 [Example 49, N-(3-(3-(pyrimidin-4-yl)-1H-pyrrolo[2,3-b]pyridin-5-yl)phenyl)acryl-amide]"
12,> 6.00,"C=CC(=O)Nc1cc(-c2cnc3[nH]cc(-c4ccnc(OC)c4)c3c2)cc(-c2cnn(C)c2)c1 [Example 80, N-(3-(3-(2-methoxypyridin-4-yl)-1H-pyrrolo[2,3-b]pyridin-5-yl)-5-(1-methyl-1H-pyrazol-4-yl)phenyl)acryl-amide]"
13,5.30 to 6.00,"C=CC(=O)Nc1cccc(-c2cnc3[nH]cc(-c4cccc(C#N)c4)c3c2)c1 [Example 92, N-(3-(3-(3-cyanophenyl)-1H-pyrrolo[2,3-b]pyridin-5-yl)phenyl)acryl-amide]"
14,5.30 to 6.00,"C=CC(=O)Nc1cccc(-c2cnc3[nH]cc(-c4ccc(OC)nc4)c3c2)c1 [Example 30, N-(3-(3-(6-methoxypyridin-3-yl)-1H-pyrrolo[2,3-b]pyridin-5-yl)phenyl)acryl-amide]"
15,5.30 to 6.00,"C=CC(=O)Nc1cccc(-c2cnc3[nH]cc(-c4cc(NC)ncn4)c3c2)c1 [Example 56, N-(3-(3-(6-(methylamino)pyrimidin-4-yl)-1H-pyrrolo[2,3-b]pyridin-5-yl)phenyl)acryl-amide]"
16,> 6.00,"C=CC(=O)Nc1cc(-c2cnc3[nH]cc(-c4ccncc4)c3c2)cc(C(F)(F)F)c1 [Example 20, N-(3-(3-(pyridin-4-yl)-1H-pyrrolo[2,3-b]pyridin-5-yl)-5-(trifluoromethyl)phenyl)acryl-amide]"
17,> 6.00,"C=CC(=O)Nc1cc(OC)cc(-c2cnc3[nH]cc(-c4ccncc4)c3c2)c1 [Example 22, N-(3-methoxy-5-(3-(pyridin-4-yl)-1H-pyrrolo[2,3-b]pyridin-5-yl)phenyl)acryl-amide]"
18,> 6.00,"C=CC(=O)Nc1cccc(-c2cnc3[nH]cc(-c4ccnc5[nH]ccc45)c3c2)c1 [Example 62, N-(3-(1H,1′H-[3,4′-bipyrrolo[2,3-b]pyridin]-5-yl)phenyl)acryl-amide]"
